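48-hour exposure; five concentrations; linearly interpolated endpoints. The concentration for 50% growth inhibition is given as GI50.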 The source made the active and inactive calls. Cut-off read from the data, not from the text of the source: active = GI50 up to about 1.1 µM and inactive = higher. Residues, ends and D or L forms follow the SMILES beside them. *: point of attachment. Bn = c1ccc(C*)cc1
Tests used:
Assay in all cases: inhibition of tumour cell growth, NCI panel, 48 h
[1] = test system: CCRF-CEM
[2] = test system: UO-31
[3] = test system: NCI/ADR-RES
[4] = test system: SNB-75
[5] = test system: NCI-H226
[6] = test system: EKVX
[7] = test system: MOLT-4
[8] = test system: SK-MEL-2
[9] = test system: LOX IMVI
[10] = test system: HCC 2998
[11] = test system: BT-549
[12] = test system: HT-29
[13] = test system: 786-0
[14] = test system: MCF7
[15] = test system: SW-620
[16] = test system: MDA-MB-231
[17] = test system: DU-145
[18] = test system: RPMI-8226
[19] = test system: HOP-92
[20] = test system: Hs-578T

Row | Compound | GI50 [1] | GI50 [2] | GI50 [3] | GI50 [4] | GI50 [5] | GI50 [6] | GI50 [7] | GI50 [8] | GI50 [9] | GI50 [10] | GI50 [11] | GI50 [12] | GI50 [13] | GI50 [14] | GI50 [15] | GI50 [16] | GI50 [17] | GI50 [18] | GI50 [19] | GI50 [20]
1 | CC1(C)O[C@@H](CP(c2cccc3ccccc23)c2cccc3ccccc23)[C@H](CP(c2cccc3ccccc23)c2cccc3ccccc23)O1 | > 100 µM (inactive) | > 100 µM (inactive) | > 100 µM (inactive) | > 100 µM (inactive) | > 100 µM (inactive) | > 100 µM (inactive) | > 100 µM (inactive) | > 100 µM (inactive) | > 100 µM (inactive) | > 100 µM (inactive) | > 100 µM (inactive) | > 100 µM (inactive) | > 100 µM (inactive) | > 100 µM (inactive) | > 100 µM (inactive) | > 100 µM (inactive) | > 100 µM (inactive) | – | – | –
2 | Cc1ccc(S(=O)(=O)Nn2c(S)c(C#N)c(-c3ccc(N(C)C)cc3)c(C#N)c2=O)cc1 | 5.57 µM (inactive) | 16.9 µM (inactive) | 32 µM (inactive) | 35.2 µM (inactive) | 2.16 µM (inactive) | 23.6 µM (inactive) | 23.4 µM (inactive) | – | 22.1 µM (inactive) | 38.2 µM (inactive) | 22.2 µM (inactive) | – | 28.6 µM (inactive) | 30.8 µM (inactive) | 18.1 µM (inactive) | > 100 µM (inactive) | 40.6 µM (inactive) | 15.6 µM (inactive) | 29.6 µM (inactive) | –
3 | COC(=O)C(CC(C)C)NC(=O)C(N)Cc1ccc(OCc2ccccc2)cc1 (stereo not drawn) (H-Tyr(Bn)-Leu-OMe; configuration not given here) | > 10 µM (inactive) | > 10 µM (inactive) | > 10 µM (inactive) | > 10 µM (inactive) | > 10 µM (inactive) | > 10 µM (inactive) | > 10 µM (inactive) | > 10 µM (inactive) | > 10 µM (inactive) | > 10 µM (inactive) | > 10 µM (inactive) | > 10 µM (inactive) | > 10 µM (inactive) | – | > 10 µM (inactive) | > 10 µM (inactive) | > 10 µM (inactive) | > 10 µM (inactive) | > 10 µM (inactive) | > 10 µM (inactive)
4 | O=C(NNc1cn[nH]c(=O)c1Cl)/C(=C/c1ccc2c(c1)OCO2)NC(=O)c1ccccc1 | – | 48.2 µM (inactive) | 35.6 µM (inactive) | 24.9 µM (inactive) | 21.9 µM (inactive) | 19.1 µM (inactive) | 33.4 µM (inactive) | 51.9 µM (inactive) | 30.9 µM (inactive) | 41.3 µM (inactive) | 18.5 µM (inactive) | 41.5 µM (inactive) | 38.5 µM (inactive) | 41.5 µM (inactive) | 41.2 µM (inactive) | > 100 µM (inactive) | 92 µM (inactive) | – | > 100 µM (inactive) | –
5 | CC(C)CC(NC(=O)C(CSc1ccc([N+](=O)[O-])cc1)Cc1ccccc1)C(=O)Nc1ccccc1 (stereo not drawn) | 33.1 µM (inactive) | 43.1 µM (inactive) | 30.2 µM (inactive) | 26.4 µM (inactive) | – | > 100 µM (inactive) | 59 µM (inactive) | > 100 µM (inactive) | > 100 µM (inactive) | > 100 µM (inactive) | 12.3 µM (inactive) | – | 44.7 µM (inactive) | 63.7 µM (inactive) | > 100 µM (inactive) | > 100 µM (inactive) | 89.3 µM (inactive) | > 100 µM (inactive) | > 100 µM (inactive) | –
6 | CCN(C(=S)N[C@@H](Cc1ccccc1)C(=O)N[C@@H](CC(C)C)C(=O)OC)c1ccccc1 | 33.5 µM (inactive) | > 100 µM (inactive) | > 100 µM (inactive) | > 100 µM (inactive) | > 100 µM (inactive) | > 100 µM (inactive) | 23.4 µM (inactive) | > 100 µM (inactive) | > 100 µM (inactive) | > 100 µM (inactive) | 69 µM (inactive) | 46 µM (inactive) | > 100 µM (inactive) | 34 µM (inactive) | 50.6 µM (inactive) | > 100 µM (inactive) | > 100 µM (inactive) | 75.9 µM (inactive) | > 100 µM (inactive) | –
7 | COc1cc2cc[n+](C)c(Cc3ccc(Oc4cc(Cc5c6cc(OC)c(OC)cc6cc[n+]5C)ccc4OC)cc3)c2cc1OC | > 100 µM (inactive) | > 100 µM (inactive) | – | > 100 µM (inactive) | > 100 µM (inactive) | > 100 µM (inactive) | 60.1 µM (inactive) | > 100 µM (inactive) | 79.8 µM (inactive) | > 100 µM (inactive) | > 100 µM (inactive) | > 100 µM (inactive) | > 100 µM (inactive) | > 100 µM (inactive) | > 100 µM (inactive) | > 100 µM (inactive) | > 100 µM (inactive) | > 100 µM (inactive) | > 100 µM (inactive) | > 100 µM (inactive)
8 | NC1CC(=O)c2cc(Cl)sc21 (stereo not drawn) | > 100 µM (inactive) | > 100 µM (inactive) | > 100 µM (inactive) | > 100 µM (inactive) | > 100 µM (inactive) | > 100 µM (inactive) | – | > 100 µM (inactive) | > 100 µM (inactive) | – | > 100 µM (inactive) | > 100 µM (inactive) | > 100 µM (inactive) | – | > 100 µM (inactive) | > 100 µM (inactive) | > 100 µM (inactive) | – | > 100 µM (inactive) | > 100 µM (inactive)
9 | Cc1ccc(/C=C/C(=N/NC(=O)N/N=C(/C=C/c2ccc(C)cc2)C(C)C)C(C)C)cc1 | > 10 µM (inactive) | > 10 µM (inactive) | > 10 µM (inactive) | – | > 10 µM (inactive) | > 10 µM (inactive) | > 10 µM (inactive) | > 10 µM (inactive) | – | > 10 µM (inactive) | > 10 µM (inactive) | > 10 µM (inactive) | > 10 µM (inactive) | > 10 µM (inactive) | > 10 µM (inactive) | > 10 µM (inactive) | > 10 µM (inactive) | 3.11 µM (inactive) | > 10 µM (inactive) | –
10 | CCCCCCCCCC[C@@H](O)[C@@H]1CC[C@@H]([C@@H]2CC[C@@H]([C@@H](O)CCCCCCCCCC[C@H](O)CC3=CC(C)OC3=O)O2)O1 (stereo partly drawn) | 1.5 µM (inactive) | 1.25 µM (inactive) | 0.256 µM (active) | 3.33 µM (inactive) | 1.29 µM (inactive) | 1.61 µM (inactive) | 1.77 µM (inactive) | 6.71 µM (inactive) | 0.834 µM (active) | 4.31 µM (inactive) | 4.23 µM (inactive) | 2.51 µM (inactive) | 3.74 µM (inactive) | 1.44 µM (inactive) | 3.78 µM (inactive) | – | 8.95 µM (inactive) | 1.26 µM (inactive) | 2.26 µM (inactive) | 4.04 µM (inactive)
11 | Clc1ccc(Nc2nnc(CNc3ccc(-c4nnc(Nc5ccc(Cl)cc5)s4)cc3)s2)cc1 | – | 4.68 µM (inactive) | 48.4 µM (inactive) | > 100 µM (inactive) | 34.9 µM (inactive) | 49.1 µM (inactive) | 19 µM (inactive) | 11.7 µM (inactive) | – | 13.4 µM (inactive) | 71.9 µM (inactive) | 11 µM (inactive) | 24.2 µM (inactive) | 17.9 µM (inactive) | 28.4 µM (inactive) | 25.8 µM (inactive) | 22.5 µM (inactive) | 18.4 µM (inactive) | 74.6 µM (inactive) | –
12 | Nc1nc2[nH]cc(CCc3ccc(C(=O)N[C@@H](CCC(=O)O)C(=O)O)cc3)c2c(=O)[nH]1 [PEMETREXED] | – | – | – | > 100 µM (inactive) | > 100 µM (inactive) | > 100 µM (inactive) | 0.0695 µM (active) | > 100 µM (inactive) | 0.0743 µM (active) | < 0.01 µM (active) | > 100 µM (inactive) | > 100 µM (inactive) | < 0.0104 µM (active) | < 0.0147 µM (active) | > 100 µM (inactive) | 10.3 µM (inactive) | > 100 µM (inactive) | – | > 100 µM (inactive) | > 100 µM (inactive)
13 | O=C(O)Cn1nnc2c(=O)[nH][nH]c(=O)c21 | > 100 µM (inactive) | > 100 µM (inactive) | > 100 µM (inactive) | – | – | > 100 µM (inactive) | > 10 µM (inactive) | > 100 µM (inactive) | > 100 µM (inactive) | > 100 µM (inactive) | > 100 µM (inactive) | > 100 µM (inactive) | > 100 µM (inactive) | > 100 µM (inactive) | – | > 100 µM (inactive) | > 100 µM (inactive) | > 100 µM (inactive) | > 100 µM (inactive) | –
14 | CC(C)(C)OC(=O)NC(Cc1ccccc1)NC(=O)NC(=O)OCc1ccccc1 (stereo not drawn) | – | > 100 µM (inactive) | 55.7 µM (inactive) | 32.8 µM (inactive) | 28.3 µM (inactive) | > 100 µM (inactive) | > 100 µM (inactive) | 34.3 µM (inactive) | – | 40 µM (inactive) | 54.5 µM (inactive) | > 100 µM (inactive) | 34.4 µM (inactive) | > 100 µM (inactive) | 59.6 µM (inactive) | – | 87.1 µM (inactive) | > 100 µM (inactive) | – | 44 µM (inactive)
15 | CC(=O)O[C@@]12CO[C@@H]1C[C@H](O)[C@@]1(C)C(=O)[C@H](O)C3=C(C)[C@@H](OC(=O)[C@H](O)[C@@H](NC(=O)OC(C)(C)C)c4ccccc4)C[C@@](O)([C@@H](OC(=O)c4ccccc4)[C@H]21)C3(C)C [DOCETAXEL] | < 0.01 µM (active) | 0.885 µM (active) | – | < 0.01 µM (active) | – | 3.72 µM (inactive) | < 0.0631 µM (active) | – | < 0.0585 µM (active) | < 0.01 µM (active) | 0.00342 µM (active) | < 0.01 µM (active) | < 0.01 µM (active) | 0.000409 µM (active) | < 0.01 µM (active) | 0.0216 µM (active) | – | < 0.01 µM (active) | 9.04 µM (inactive) | 0.00104 µM (active)

From ChEMBL document CHEMBL1201862, “PubChem BioAssay data set” (2004)
